Values of other authors in patent publication US10189872B2, “Crystalline form of nicotinamide riboside” (W. R. Grace & Co.-Conn., priority 2015, dated 2019).

Details: mice on a high-fat diet supplemented with nicotinamide riboside; 2012 study

NC(=O)c1ccc[n+]([C@@H]2O[C@H](CO)[C@@H](O)[C@H]2O)c1 [nicotinamide riboside, Nicotinamide riboside]
less weight gained than mice eating the same high-fat diet without nicotinamide riboside: 60%
